SMILES strings stand for the structures.

These results are taken from ChEMBL document CHEMBL5465560, “Selectivity Literature for EUbOPEN Chemogenomic Library” (2024).

The target in assay [1] is T1, Protein arginine N-methyltransferase 9 (Homo sapiens) (UniProt Q6P2P2).
T1 sequence (whole entry): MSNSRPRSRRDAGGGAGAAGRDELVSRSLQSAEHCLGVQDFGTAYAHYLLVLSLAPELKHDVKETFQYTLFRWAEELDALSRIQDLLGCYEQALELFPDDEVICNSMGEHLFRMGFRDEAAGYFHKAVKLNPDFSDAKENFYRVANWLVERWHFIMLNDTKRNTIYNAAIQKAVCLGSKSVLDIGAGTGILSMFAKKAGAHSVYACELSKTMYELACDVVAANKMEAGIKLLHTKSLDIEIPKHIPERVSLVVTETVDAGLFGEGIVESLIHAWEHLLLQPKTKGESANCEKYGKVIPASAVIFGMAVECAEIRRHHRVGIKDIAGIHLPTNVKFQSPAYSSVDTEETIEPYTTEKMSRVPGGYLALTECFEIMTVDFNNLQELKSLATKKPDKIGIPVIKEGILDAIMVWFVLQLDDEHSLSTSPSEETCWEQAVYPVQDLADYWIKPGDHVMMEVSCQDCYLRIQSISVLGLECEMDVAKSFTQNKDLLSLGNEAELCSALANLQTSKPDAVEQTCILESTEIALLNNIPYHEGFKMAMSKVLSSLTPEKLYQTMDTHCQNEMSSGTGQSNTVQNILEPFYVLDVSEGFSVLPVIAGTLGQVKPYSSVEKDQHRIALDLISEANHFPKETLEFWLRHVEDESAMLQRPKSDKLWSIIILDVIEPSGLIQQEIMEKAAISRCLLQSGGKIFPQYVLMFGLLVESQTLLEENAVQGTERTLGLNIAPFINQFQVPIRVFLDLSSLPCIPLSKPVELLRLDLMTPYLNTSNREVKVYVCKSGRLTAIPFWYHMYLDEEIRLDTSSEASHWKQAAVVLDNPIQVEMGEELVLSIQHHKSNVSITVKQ
Put plainly: Selectivity interaction (Methyltransferase screen (Scintillation proximity assays)) EUB0000255b PRMT9.

The target of assay [2] is T2, Rhodopsin kinase GRK7 (Homo sapiens) (UniProt Q8WTQ7).
T2 sequence (whole entry): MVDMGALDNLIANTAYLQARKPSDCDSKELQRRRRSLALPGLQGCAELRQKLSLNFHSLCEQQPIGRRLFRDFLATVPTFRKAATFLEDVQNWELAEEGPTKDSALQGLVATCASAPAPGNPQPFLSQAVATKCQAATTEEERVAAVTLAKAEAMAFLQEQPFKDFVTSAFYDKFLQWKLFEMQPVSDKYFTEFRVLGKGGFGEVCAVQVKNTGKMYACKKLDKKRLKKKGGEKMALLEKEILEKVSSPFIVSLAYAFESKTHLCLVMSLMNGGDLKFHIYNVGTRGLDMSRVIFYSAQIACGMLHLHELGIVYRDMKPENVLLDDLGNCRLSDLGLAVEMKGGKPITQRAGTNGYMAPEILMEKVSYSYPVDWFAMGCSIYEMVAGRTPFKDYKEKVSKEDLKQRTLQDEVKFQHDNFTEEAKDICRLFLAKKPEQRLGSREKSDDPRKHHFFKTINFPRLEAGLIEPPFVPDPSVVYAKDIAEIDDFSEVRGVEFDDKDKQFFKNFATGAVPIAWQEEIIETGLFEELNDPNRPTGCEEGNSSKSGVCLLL
Briefly: Selectivity interaction (KinomeScan (DiscoverX)) EUB0000655a GRK7. Particulars: at 10 µM.

The target of assay [3] is Histone-lysine N-methyltransferase SUV39H2 (Homo sapiens) (UniProt Q9H5I1). Briefly: Selectivity interaction (Methyltransferase screen (radiometric assays, panel of 8 PRMTs, 21 protein lysine methyltransferases, 3 DNA methyltransferases, and one RNA methyltransferase)) EUB0000271b SUV39H2.
The target of assay [4] is Dual specificity protein kinase CLK4 (Homo sapiens, UniProt Q9HAZ1). Briefly: Selectivity interaction (KinomeScan (DiscoverX)) EUB0000666a CLK4. Particulars: at 10 µM.
Assay [5] addresses Homeodomain-interacting protein kinase 1 (Homo sapiens, UniProt Q86Z02). Put plainly: Selectivity interaction (KinomeScan (DiscoverX)) EUB0000666a HIPK1. Particulars: at 10 µM.
For assay [6], the target named is Insulin receptor-related protein (Homo sapiens) (UniProt P14616). Put plainly: Selectivity interaction (KinomeScan (DiscoverX)) EUB0000607a INSRR. Particulars: at 10 µM.
Assay [7] deals with T3, Serine/threonine-protein kinase D1 (Homo sapiens) (UniProt Q15139).
T3 sequence (whole entry): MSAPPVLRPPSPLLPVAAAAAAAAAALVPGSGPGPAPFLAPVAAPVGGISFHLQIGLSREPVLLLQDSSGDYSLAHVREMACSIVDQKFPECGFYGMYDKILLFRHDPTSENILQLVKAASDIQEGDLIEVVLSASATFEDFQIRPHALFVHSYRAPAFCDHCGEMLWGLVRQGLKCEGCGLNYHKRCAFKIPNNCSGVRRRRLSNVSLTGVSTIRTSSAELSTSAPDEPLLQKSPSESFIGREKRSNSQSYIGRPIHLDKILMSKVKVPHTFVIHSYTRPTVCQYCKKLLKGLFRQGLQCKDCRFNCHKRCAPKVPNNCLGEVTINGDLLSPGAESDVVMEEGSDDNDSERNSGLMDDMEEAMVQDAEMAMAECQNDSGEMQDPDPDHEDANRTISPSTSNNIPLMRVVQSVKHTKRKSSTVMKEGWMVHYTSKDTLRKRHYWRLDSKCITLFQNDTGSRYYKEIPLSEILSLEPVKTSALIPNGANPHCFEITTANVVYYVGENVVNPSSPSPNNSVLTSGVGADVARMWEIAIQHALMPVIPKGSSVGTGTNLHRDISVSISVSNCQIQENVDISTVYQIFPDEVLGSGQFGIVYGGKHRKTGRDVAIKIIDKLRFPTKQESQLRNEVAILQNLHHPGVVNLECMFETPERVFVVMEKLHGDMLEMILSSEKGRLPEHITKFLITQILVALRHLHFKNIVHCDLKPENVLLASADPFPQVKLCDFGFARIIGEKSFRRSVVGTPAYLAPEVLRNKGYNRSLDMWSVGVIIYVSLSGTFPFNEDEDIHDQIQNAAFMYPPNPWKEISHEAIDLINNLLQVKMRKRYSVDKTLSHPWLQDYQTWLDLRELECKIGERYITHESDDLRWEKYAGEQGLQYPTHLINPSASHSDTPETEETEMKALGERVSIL
Put plainly: Selectivity interaction (SelectScreen profiling (Invitrogen)) EUB0000607a PRKD1. Particulars: at 2 µM.

Assay [8] concerns the target Aurora kinase B (Homo sapiens, UniProt Q96GD4). Briefly: Selectivity interaction (ActivX KiNativ screen (kinase selectivity in THP-1 cell lysates)) EUB0000639a AURKB. It counts as subcellular. Particulars: lysate.
For assay [9], the target named is Leukocyte tyrosine kinase receptor (Homo sapiens, UniProt P29376). Briefly: Selectivity interaction (KinomeScan (DiscoverX)) EUB0000618a LTK. Particulars: at 10 µM.
Chain of Leukocyte tyrosine kinase receptor (P29376 whole entry): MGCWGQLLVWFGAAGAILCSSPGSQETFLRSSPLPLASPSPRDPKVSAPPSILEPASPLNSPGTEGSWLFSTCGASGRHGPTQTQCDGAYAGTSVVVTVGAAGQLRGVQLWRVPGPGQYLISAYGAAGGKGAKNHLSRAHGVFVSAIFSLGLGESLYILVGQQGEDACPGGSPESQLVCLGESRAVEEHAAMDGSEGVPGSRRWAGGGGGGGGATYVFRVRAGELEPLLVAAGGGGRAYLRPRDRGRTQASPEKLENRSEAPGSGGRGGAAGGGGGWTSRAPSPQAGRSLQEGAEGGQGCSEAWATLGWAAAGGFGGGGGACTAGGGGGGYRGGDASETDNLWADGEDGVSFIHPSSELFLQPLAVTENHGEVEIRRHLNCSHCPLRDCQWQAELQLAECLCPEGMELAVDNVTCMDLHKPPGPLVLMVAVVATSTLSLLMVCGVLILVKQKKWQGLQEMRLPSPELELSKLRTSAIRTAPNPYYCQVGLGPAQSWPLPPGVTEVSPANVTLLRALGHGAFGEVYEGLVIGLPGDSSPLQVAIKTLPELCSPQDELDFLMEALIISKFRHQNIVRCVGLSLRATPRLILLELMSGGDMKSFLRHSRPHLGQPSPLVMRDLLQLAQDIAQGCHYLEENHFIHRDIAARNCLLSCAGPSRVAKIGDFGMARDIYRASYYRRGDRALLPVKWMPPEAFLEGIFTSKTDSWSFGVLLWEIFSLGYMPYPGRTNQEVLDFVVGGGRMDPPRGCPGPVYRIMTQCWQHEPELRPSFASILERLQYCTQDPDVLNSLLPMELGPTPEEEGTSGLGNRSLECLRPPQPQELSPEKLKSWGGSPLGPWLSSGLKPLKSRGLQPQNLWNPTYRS

Chain of Aurora kinase B (Q96GD4 whole entry): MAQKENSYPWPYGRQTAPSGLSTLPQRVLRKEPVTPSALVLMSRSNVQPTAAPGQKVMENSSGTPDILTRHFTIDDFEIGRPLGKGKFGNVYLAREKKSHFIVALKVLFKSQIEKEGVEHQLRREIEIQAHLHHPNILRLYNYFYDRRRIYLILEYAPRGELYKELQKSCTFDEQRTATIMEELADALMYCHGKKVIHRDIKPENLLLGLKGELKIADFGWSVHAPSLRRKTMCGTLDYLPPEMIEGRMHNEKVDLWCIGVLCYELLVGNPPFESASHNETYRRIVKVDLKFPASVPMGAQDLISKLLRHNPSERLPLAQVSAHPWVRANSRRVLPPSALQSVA
Chain of Histone-lysine N-methyltransferase SUV39H2 (Homo sapiens) (Q9H5I1 whole entry): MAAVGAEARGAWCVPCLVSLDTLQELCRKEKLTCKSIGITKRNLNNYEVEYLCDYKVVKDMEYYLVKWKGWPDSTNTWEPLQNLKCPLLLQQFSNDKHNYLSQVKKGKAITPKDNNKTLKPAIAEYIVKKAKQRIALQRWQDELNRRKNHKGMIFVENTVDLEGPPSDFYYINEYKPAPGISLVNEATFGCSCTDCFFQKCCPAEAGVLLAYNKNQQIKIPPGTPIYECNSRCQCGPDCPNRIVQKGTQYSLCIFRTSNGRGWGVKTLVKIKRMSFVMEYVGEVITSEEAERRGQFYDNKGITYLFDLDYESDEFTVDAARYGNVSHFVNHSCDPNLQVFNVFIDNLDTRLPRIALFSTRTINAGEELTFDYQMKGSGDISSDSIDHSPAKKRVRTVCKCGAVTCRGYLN
Chain of Homeodomain-interacting protein kinase 1 (Q86Z02 whole entry, looked up): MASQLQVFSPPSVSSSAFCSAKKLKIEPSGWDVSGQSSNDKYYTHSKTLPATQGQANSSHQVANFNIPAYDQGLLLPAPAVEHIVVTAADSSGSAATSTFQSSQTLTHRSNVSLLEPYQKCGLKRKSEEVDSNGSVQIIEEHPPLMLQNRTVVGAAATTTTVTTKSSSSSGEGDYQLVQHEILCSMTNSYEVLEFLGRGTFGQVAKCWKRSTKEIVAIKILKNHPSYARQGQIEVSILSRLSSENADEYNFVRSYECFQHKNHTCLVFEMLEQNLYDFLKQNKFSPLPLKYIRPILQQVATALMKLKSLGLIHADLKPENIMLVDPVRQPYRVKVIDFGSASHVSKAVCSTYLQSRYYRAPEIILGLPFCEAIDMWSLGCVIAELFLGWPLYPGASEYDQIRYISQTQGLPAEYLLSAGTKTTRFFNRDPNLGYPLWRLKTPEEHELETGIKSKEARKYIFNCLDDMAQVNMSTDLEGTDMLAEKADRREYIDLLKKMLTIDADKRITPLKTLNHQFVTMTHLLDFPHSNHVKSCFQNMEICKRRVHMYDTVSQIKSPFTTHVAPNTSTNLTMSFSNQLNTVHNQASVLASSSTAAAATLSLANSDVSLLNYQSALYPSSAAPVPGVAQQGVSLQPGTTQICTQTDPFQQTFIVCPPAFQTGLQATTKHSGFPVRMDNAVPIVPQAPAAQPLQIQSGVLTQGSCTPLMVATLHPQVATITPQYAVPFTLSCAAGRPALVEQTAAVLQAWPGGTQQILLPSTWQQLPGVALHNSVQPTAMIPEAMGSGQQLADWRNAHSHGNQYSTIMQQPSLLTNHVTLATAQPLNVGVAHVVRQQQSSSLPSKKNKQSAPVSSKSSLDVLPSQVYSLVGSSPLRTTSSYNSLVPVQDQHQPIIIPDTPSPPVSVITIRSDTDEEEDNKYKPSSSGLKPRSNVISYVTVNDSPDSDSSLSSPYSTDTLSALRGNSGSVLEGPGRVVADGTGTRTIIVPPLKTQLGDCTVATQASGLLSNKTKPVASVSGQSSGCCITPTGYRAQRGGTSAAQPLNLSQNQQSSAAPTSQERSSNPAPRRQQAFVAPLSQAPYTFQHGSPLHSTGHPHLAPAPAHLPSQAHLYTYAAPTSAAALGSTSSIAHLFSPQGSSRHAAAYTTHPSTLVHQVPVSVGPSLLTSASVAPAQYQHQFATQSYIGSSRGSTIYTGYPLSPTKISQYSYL
Chain of Insulin receptor-related protein (Homo sapiens) (P14616 27-742 limits assumed): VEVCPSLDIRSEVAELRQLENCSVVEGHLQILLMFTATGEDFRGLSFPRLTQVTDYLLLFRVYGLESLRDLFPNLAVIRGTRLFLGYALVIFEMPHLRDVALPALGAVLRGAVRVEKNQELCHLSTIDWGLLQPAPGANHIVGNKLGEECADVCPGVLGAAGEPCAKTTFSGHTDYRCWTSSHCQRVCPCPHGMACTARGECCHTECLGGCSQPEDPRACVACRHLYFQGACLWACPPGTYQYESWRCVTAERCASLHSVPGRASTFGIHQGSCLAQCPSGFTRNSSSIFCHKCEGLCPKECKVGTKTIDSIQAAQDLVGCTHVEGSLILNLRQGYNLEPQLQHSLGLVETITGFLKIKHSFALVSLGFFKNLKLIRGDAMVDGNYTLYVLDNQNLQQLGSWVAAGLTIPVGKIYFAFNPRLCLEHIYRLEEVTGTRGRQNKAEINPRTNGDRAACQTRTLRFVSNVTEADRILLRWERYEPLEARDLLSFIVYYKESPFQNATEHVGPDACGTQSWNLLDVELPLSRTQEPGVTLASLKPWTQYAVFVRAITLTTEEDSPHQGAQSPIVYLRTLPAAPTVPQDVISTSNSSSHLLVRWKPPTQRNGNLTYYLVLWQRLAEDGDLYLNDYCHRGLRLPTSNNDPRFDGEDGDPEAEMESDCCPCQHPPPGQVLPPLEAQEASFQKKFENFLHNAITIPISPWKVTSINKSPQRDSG
Chain of Insulin receptor-related protein (Homo sapiens) (P14616 747-1297 limits assumed): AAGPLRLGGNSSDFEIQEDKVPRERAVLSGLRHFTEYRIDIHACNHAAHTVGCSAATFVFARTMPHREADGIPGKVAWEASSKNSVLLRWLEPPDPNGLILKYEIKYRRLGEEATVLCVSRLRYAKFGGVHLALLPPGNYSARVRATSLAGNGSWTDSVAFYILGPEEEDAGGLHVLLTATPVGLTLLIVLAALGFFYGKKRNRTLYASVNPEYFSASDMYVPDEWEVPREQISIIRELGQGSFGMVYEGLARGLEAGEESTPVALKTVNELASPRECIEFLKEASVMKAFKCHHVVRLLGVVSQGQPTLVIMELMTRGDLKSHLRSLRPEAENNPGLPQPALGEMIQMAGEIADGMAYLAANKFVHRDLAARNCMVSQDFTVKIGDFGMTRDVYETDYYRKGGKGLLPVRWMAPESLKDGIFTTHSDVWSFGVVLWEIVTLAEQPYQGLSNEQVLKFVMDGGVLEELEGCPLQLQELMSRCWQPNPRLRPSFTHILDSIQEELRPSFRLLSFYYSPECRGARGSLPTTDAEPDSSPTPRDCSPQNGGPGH
Chain of Dual specificity protein kinase CLK4 (Q9HAZ1 whole entry, looked up): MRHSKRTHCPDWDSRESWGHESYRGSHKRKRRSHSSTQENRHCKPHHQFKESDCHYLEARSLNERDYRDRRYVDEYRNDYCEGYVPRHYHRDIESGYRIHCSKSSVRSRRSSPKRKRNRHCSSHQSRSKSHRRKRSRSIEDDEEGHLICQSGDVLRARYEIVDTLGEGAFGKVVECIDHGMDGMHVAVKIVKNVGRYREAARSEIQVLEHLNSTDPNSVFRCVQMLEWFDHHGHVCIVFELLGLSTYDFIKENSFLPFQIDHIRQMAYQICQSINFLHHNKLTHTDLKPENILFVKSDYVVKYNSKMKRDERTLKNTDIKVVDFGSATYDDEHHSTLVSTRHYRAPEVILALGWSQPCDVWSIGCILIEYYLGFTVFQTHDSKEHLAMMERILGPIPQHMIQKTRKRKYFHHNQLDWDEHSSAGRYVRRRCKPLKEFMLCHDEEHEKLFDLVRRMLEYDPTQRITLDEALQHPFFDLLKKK

As for `COCCN1CCC(c2cc(CN(C)C(=O)c3cccc(Oc4ccccc4)c3)ccn2)CC1`, the % activity in [1] (at 1 µM) is 90%; in [1] (at 10 µM), greater than 90%.

With `CN(C)CCOc1ccc(-c2nc(-c3ccncc3)c(-c3ccc4c(c3)CC/C4=N\O)[nH]2)cc1`, the % of control in [2] worked out at 100%.

As to `Cc1cc(C)cc([C@@H]2c3cc(C)ccc3NC(=O)CN2C(=O)c2ccc(Br)s2)c1`, the figures for the % of activity in [3] (at 1 µM) and in [3] (at 10 µM) were 99.3% and 98.3%, respectively.

Turning to `O=C(NOC[C@H](O)CO)c1ccc(F)c(F)c1Nc1ccc(I)cc1F`, the % of control in assay [4] stood at 89%; in [5], 91%.

Consider `CNC(=O)Nc1ccc(-c2nc(N3CC4CCC(C3)O4)c3cnn(C4CCC5(CC4)OCCO5)c3n2)cc1`, for which, in assay [6], the % of control amounted to 100%. In assay [7], this compound displayed a % of inhibition of 0%.

Turning to `CC[C@@H]1[C@H](F)C(=O)N[C@@H]1COc1nccc2cc(C(N)=O)c(OC)cc12` [ZIMLOVISERTIB], the % of inhibition came out at 9.7% in [8] (at 0.01 µM); 3.4% in assay [8] (at 0.04 µM); 11.1% in assay [8] (at 0.2 µM); 32.2% in [8] (at 1 µM); 63.1% in assay [8] (at 5 µM).

In the case of `O[C@H]1CC[C@H](Nc2ncc3nc(Nc4c(F)cc(F)cc4F)n([C@H]4CCOC4)c3n2)CC1`, in assay [9], the % of control stood at 100%.
